The values that follow come from patent US20030161893A1, “PTPase inhibitors and methods of using the same” (priority 2001, published 2003).

Molecules are shown by their SMILES. Some results are limits rather than exact numbers.

In one data set the test system is Stat1. Put plainly: IFN-alpha-induced Stat1 tyrosine phosphorylation, WiT49-N1 cells. Type of data set: cell-based, human. Here is the method: For induction of Stat1 tyrosine phosphorylation by IFN-alpha in the absence or presence of sodium stibogluconate, cells grown in 10% FCS RPMI 1640 medium at 37° C. were stimulated with IFN-alpha (50 u/ml) for various time points and treated with or without sodium stibogluconate for 5 minutes prior to termination by lysing the cells in cold lysis buffer (1% NP-40; 50 mM Tris, pH 7.4; 100 mM NaCl; 1 mM EDTA, 10% glycerol, 10 mM sodium molybdic acid and 4 mM AEBSF).
Cell lysates were prepared by lysing cells in cold lysis buffer for 30 min and cleared by centrifuging at 14,000 rpm at 4° C. for 15 min. For SDS-PAGE, cell lysates were mixed with equal volume of 2×SDS-PAGE sample buffer, heated at 90° C. for 5 min and separated in 10% SDS-PAGE gels. Cellular proteins in SDS-PAGE gels were transferred to nitrocellulose membrane (Schleicher & Schuell, Keene, N.H.), blocked in 5% milk, probed with antibodies and detected by using an enhanced chemiluminescence kit (ECL, Amersham, Arlington Heights, Ill.).

For another data set, the system named is LoVo cells. Put plainly: Cell growth assay (MTT), LoVo colon cancer cells. The settings on record: 100 μg/ml, day 6. The class given is cell-based, human. As to the method: (§1) NIH3T3 (Yi, et al., Blood 85, 87 (1995)), WM9 (Forsberg, et al., Proc. Nat. Acad Sci. USA 90, 393 (1993)), DU145 (Mickey, et al., Cancer Res. 37, 4049 (1977)), LoVo (Drewinko, et al., Cancer Res. 36, 467 (1976)), HEY (Buick, et al., Cancer Res. 45, 3668 (1985)), U251 (Yoshida, et al., Cancer 50, 410 (1982)), A549 (Giard, et al., J. Natl. Cancer Inst. 51, 1417 (1973)) and SK-N-SH (Helson, et al., Cancer Res. 35, 2594 (1975)) cell lines have been described and were cultured in RPMI 1640 supplemented with 10% fetal calf serum (FCS). For measurement of sodium stibogluconate effects on cell growth in vitro, cells were cultured in the absence (−) or presence (+) of various amounts of sodium stibogluconate for 6 days with viable cells quantified by MTT assays (Mosmann, J. Imunol. Methods 65, 55 (1983)). Percentages of growth inhibition by sodium stibogluconate were calculated (+/−×%).

Data set [1] can be described thus: Tolerability in nude mice (viability, body weight, organs). Type of data set: in vivo. Here is the method: Nude mice bearing WM9 or DU145 xenografts were treated with IFN-alpha (500,000 U, s.c., daily), sodium stibogluconate (12 mg Sb, s.c., daily) or both. […] The dosage of sodium stibogluconate corresponds to approximately 440 mg Sb/kg body weight (average mouse body weight 27 g), substantially higher than the standard therapeutic dose of 20 mg Sb/kg and the high dose (143 mg Sb/kg) that was clinically used by accident without serious toxicity. This dose of sodium stibogluconate was based on a previous observation in a pilot study that mice could tolerate daily dose of 20 mg Sb (approximately 700-800 mg Sb/kg). An observation that the effect of sodium stibogluconate in inhibiting the growth of the cancer cell lines in vitro was dose-dependent with complete or near complete killing of the cancer cells at […] (or 100 ug Sb/kg) was also considered. In light of the relatively rapid rate of clearance of the drug in vivo, 440 mg Sb/kg dosage was used to ensure the detection of the effectiveness of the drug for this initial study.
As discussed above, the dosage of sodium stibogluconate used for the treatment of nude mice was 12 mg Sb/mouse, s.c., daily (or approximately 440 mg/kg body weight). This dosage is much higher than the standard dose for leishmaniasis (20 mg Sb/kg, daily). As an initial step to assess the toxicity of such a high dosage of sodium stibogluconate in nude mice, the effect of sodium stibogluconate on the viability and body weights of WM9 xenografts nude mice during the 25 day period of the study was determined.
Athymic nude mice (nu/nu, NCR), 4 weeks old (Taconic), were inoculated (s.c.) in the flanks with DU145 cells (3×10^6 cells/site) on day 0. Starting on day 2, the mice were subjected to no treatment (Control) or treatment with sodium stibogluconate (12 mg, s.c., daily, […], at the hip area). The dosage of sodium stibogluconate used in the study was similar to the effective daily dose of sodium stibogluconate for the treatment of murine leishmaniasis (Murray, et al. 1988). Tumor volume was measured and calculated using the formula for a prolate spheroid (V=4/3 7 a^2b) (Lindner, et al. 1997). Hematoxylin+Eosin (H.E.) stained tissue sections of internal organs and tumor inoculation sites tissues of the mice were prepared and subjected microscopic evaluation.

A further data set relates to A549 cells. Nature of the data set: Cell growth assay (MTT), A549 lung cancer cells. The settings on record: 100 μg/ml, day 6. The class given is cell-based, human. Here is the method: as §1
Another data set has as its system HEY cells. Put plainly: Cell growth assay (MTT), HEY ovarian cancer cells. Type of data set: cell-based, human. The settings on record: 100 μg/ml, day 6. As to the method:
as §1

The test system of a further data set is WM9 cells. Nature of the data set: Cell proliferation assay (MTT), WM9 melanoma cells. The class given is cell-based, human. Here is the method: (§2) For cell proliferation assays, cells were grown in 10% FCS culture medium containing various amounts of IFNs and/or sodium stibogluconate in 96 well plates and cultured at 37° C. for 3 or 6 days as indicated. The numbers of viable cells in proliferation assays were determined by MTT assays as described in Phatak et al., J. Immunol. 167, 3391 (2001).
Dose response curves were generated for each drug alone, and also the combinations. Median effect plots were generated for IFNs alone, sodium stibogluconate alone, and the combination. The combination index (CI) was determined and plotted vs. fraction affected (FA). Data were analyzed in both modes, mutually exclusive and mutually nonexclusive. The interaction between two mutually nonexclusive drugs is described by the Equation CI=D1/D×1+D2/D×2+D1D2/D×1D×2, where D×1 and D×2 are the doses of drug 1 and drug 2 that are required to inhibit growth×%. […] When CI<1, drugs are synergistic, when CI=1, drugs are additive, and when CI>1, drugs are antagonistic.

A further data set has as its system WiT49-N1 cells. Put plainly: Cell proliferation assay (MTT), WiT49-N1 Wilms tumor cells. The class given is cell-based, human. The settings on record: day 6. As to the method: as §2
The test system of the next data set is MDA231 cells. Put plainly: Cell proliferation assay (MTT), MDA231 breast cancer cells. The class given is cell-based, human. As to the method: as §2
The conditions of data set [2]: cited from earlier work.
Where [3] appears, read: 50 μg/ml and 100 μg/ml, day 6 culture.

Regarding `O.O.O.O.O.O.O.O.O.O=C([O-])[C@@H]1[O][Sb]2([O-])([O][Sb]34([OH])[O][C@H]([C@H](O)CO)[C@H]([O]3)[C@H](C(=O)[O-])[O]4)[O][C@H]([C@H](O)CO)[C@@H]1[O]2.[Na+].[Na+].[Na+]` [sodium stibogluconate], the “IFN-alpha-induced Stat1 tyrosine phosphorylation” value in the data set with Stat1 is on record as “failed to enhance”. Moreover, the “cell killing, LoVo” value in the data set on LoVo cells was “near-complete cell killing”. The “tolerability at the dosage used” value in data set [1] (12 mg Sb daily (440 mg Sb/kg daily)) is given as “well tolerated with no serious side effects”. Moreover, the “survival of DU145 tumor mice” value in [1] (440 mg/kg daily) is on record as “survived until the end of the study”. For the same compound, the “histology of major organs” value in data set [1] (440 mg/kg daily, DU145 tumor mice) is “unremarkable”. For the same compound, in data set [1] (approximately 700-800 mg Sb/kg), the “tolerated daily dose in mice (pilot study)” value came out at 20 mg Sb. The “survival of WM9 xenograft nude mice” value in data set [1] (day 25, 4 mice/group) is given as “survived until the end of the study”. Moreover, the “cell killing, A549” value in the data set with A549 cells is “near-complete cell killing”. Moreover, the “cell killing, HEY” value with HEY cells is “near-complete cell killing”. Also, the “killing of WM9 cells, single agent” value with WM9 cells (setting [3]) was “killed all cells”. Further, the “IFN-alpha-induced growth inhibition of WM9 in presence of drug” value in the data set with WM9 cells (day 6) is on record as “augmented”. The “IFN-alpha- and IFN-beta-induced growth inhibition of WM9 in presence of drug” value with WM9 cells (day 6, most dramatic at 12.5-50 μg/ml and IFNs 12.5-50 units/ml) is given as “greatly enhanced”. Also, in the data set with WiT49-N1 cells, the “growth inhibition of WiT49-N1 with added IFN-alpha” value is “not enhanced by IFN-alpha” and the “sensitivity of WiT49-N1 cells” value is recorded as “sensitive”. Moreover, the “killing of MDA231 cells, single agent” value in the data set with MDA231 cells (setting [3]) was “killed all cells”. Moreover, the “IFN-alpha-induced growth inhibition of MDA231 in presence of drug” value in the data set with MDA231 cells (day 6) is recorded as “augmented”. Also, in data set [2] (10-20 mg/kg/day), the “serum levels at standard dosage for leishmaniasis treatment” value is at least 10000 ng/mL. Moreover, in [2] (human, in vivo), the “clinical side effects at higher dosages” value was “reversible nonspecific ECG changes and renal defects”; the “clinical tolerability at therapeutic dosages” value is on record as “well tolerated”.
